This note sets out measurements from US6803372B2, “Spiro compounds” (Banyu Pharmaceutical Co., Ltd., priority 1999, dated 2004).

SMILES strings stand for the structures.

The first data set has as its target T1, human NPY Y5 receptor (Homo sapiens, UniProt Q15761).
T1 construct: expressed in transfected cells; host or cells: COS-7, CHO and LM(tk-)
T1 sequence (Q15761 1-445): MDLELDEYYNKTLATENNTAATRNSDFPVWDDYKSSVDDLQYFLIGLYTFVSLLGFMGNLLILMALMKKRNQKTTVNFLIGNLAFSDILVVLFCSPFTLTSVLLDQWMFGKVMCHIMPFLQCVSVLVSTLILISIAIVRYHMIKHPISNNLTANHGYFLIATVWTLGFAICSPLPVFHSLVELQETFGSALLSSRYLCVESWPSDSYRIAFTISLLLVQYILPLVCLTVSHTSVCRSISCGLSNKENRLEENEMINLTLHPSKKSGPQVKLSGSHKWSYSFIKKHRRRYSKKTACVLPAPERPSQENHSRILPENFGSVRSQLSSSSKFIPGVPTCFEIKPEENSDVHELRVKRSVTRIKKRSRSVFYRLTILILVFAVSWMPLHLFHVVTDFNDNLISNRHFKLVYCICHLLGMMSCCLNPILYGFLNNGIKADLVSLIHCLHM
Description: NPY binding inhibition test (Pharmacological Test 1). The following applies: [125I]peptideYY, membrane sample from cells expressing NPY Y5 receptor, 25° C., 2 hours; read-out: IC50 of the test compound against specific peptideYY binding. The source says: Pharmacological Test 1 (NPY Binding Inhibition Test)
cDNA sequence encoding human NPY Y5 receptor [International patent publication number WO96/16542] was cloned into expression vectors pcDNA3, pRc/RSV (made by Invitrogen Inc.) and pCI-neo (made by Promega Inc.). This obtained expression vectors were transfected to host cells COS-7, CHO and LM(tk-) (American Type Culture Collection) by cationic lipid method [Proceedings of the National Academy of Sciences of the United States of America, 84: 7413(1987)] to give NPY Y5 receptor expression cells.
A membrane sample prepared from the cells which expressed NPY Y5 receptor was incubated together with a test compound and [^125I]peptideYY (NEN) (20,000 cpm) in an assay buffer (25 mM Tris buffer, pH7.4, containing 10 mM magnesium chloride, 1 mM phenylmethylsulfonyl fluoride, 0.1% bacitracin and 0.5% bovine serum albumin) at 25° C. for 2 hours, then filtered through a glass filter GF/C and washed with 5 mM Tris buffer (pH7.4) containing 0.3% BSA. The radioactivity of the cake on the glass filter was measured. Nonspecific binding was measured in the presence of 1 μM peptideYY and a 50% Inhibitory Concentration (IC50) of the test compound against specific peptideYY binding was determined [Endocrinology, 131: 2090(1992)].
In general, IC50 refers to the point on the concentration scale where inhibition reaches its midpoint. Consider `O=C1OC2(CCC(C(=O)Nc3ncc(-c4ccccc4)cn3)CC2)c2ccccc21` (stereo not drawn) [Example 50, Trans-3′-oxo-N-(5-phenyl-2-pyrimidinyl)spiro[cyclohexane-1,1′(3′H)-isobenzofuran]-4-carboxamide], for which the IC50 came to 480 pM. For `O=C1Cc2ccccc2C2(CCN(C(=O)Nc3ccc(C(=O)c4ccccc4)cc3)CC2)O1` [Example 44, N-(4-benzoylphenyl)-3,4-dihydro-3-oxospiro[1H-2-benzopyran-1,4′-piperidine]-1′-carboxamide], the IC50 turned out to be 1500 pM.

Tested on in the next data set: not given
Assay: not given
Conditions: not given
What is called melting point is the temperature, or range, at which the solid turns liquid. `CCn1ccnc1-c1ccc(NC(=O)N2CCC3(CC2)OC(=O)c2ccccc23)cc1` [Example 38, N-[4-(1-ethyl-2-imidazolyl)phenyl]-3-oxospiro[isobenzofuran-1(3H),4′-piperidine]-1′-carboxamide] had a melting point of 221 to 223 °C. Still for that read-out and setting: then `O=C1Cc2ccccc2C2(CCN(C(=O)Nc3cn(-c4cccc(OC(F)F)c4)cn3)CC2)N1` [Example 14, N-[1-(3-difluoromethoxyphenyl)-4-imidazolyl]-3,4-dihydro-3-oxospiro[isoquinoline-1(2H),4′-piperidine]-1′-carboxamide], with 161 to 163 °C. On the same count and under the same terms, under `O=C1Cc2ccccc2C2(CCN(C(=O)Nc3cnc(C(=O)c4ccccc4)cn3)CC2)O1` [Example 46, N-(5-benzoyl-2-pyrazinyl)-3,4-dihydro-3-oxospiro[1H-2-benzopyran-1,4′-piperidine]-1′-carboxamide] stands 128 to 131 °C; under `O=C1Cc2ccccc2C2(CCN(C(=O)Nc3cnc(-c4ccccc4)cn3)CC2)N1` [Example 6, 3,4-Dihydro-3-oxo-N-(5-phenyl-2-pyrazinyl)spiro[isoquinoline-1(2H),4′-piperidine]-1′-carboxamide], 237 to 239 °C; under `O=C1Cc2ccccc2C2(CCN(C(=O)Nc3cn(-c4cccc(Cl)c4)cn3)CC2)N1` [Example 17, N-[1-(3-chlorophenyl)-4-imidazolyl]-3,4-dihydro-3-oxospiro[isoquinoline-1(2H),4′-piperidine]-1′-carboxamide], 255 to 258 °C. On the same count and under the same terms, under `O=C1OC2(CCN(C(=O)Nc3cn(-c4cccc(CCO)c4)cn3)CC2)c2ccccc21` [Example 37, N-{1-[3-(2-hydroxyethyl)phenyl]-4-imidazolyl}-3-oxospiro[isobenzofuran-1(3H),4′-piperidine]-1′-carboxamide] stands 99 to 100 °C. With `O=C1Cc2ccccc2C2(CCN(C(=O)Nc3ccc(C(=O)c4ccccn4)cc3)CC2)N1` [Example 15, 3,4-Dihydro-3-oxo-N-[4-(2-pyridylcarbonyl)phenyl]spiro[isoquinoline-1(2H),4′-piperidine]-1′-carboxamide], the melting point is 162 to 164 °C. The same measure, in the same setting: under `O=C1Cc2ccccc2C2(CCN(C(=O)Nc3ccc(Cl)c(Cl)c3)CC2)N1` [Example 16, N-(3,4-dichlorophenyl)-3,4-dihydro-3-oxospiro[isoquinoline-1(2H),4′-piperidine]-1′-carboxamide] stands more than 300 °C; under `O=C1Cc2ccccc2C2(CCN(C(=O)Nc3nc4cc(Cl)ccc4o3)CC2)N1` [Example 21, N-(5-chloro-2-benzoxazolyl)-3,4-dihydro-3-oxospiro[isoquinoline-1(2H),4′-piperidine]-1′-carboxamide], 256 to 258 °C; under `O=C1OC2(CCN(C(=O)Nc3ccc4ncc(OC(F)F)cc4n3)CC2)c2ccccc21` [Example 35, N-(7-difluoromethoxypyrido[3,2-b]pyridin-2-yl)-3-oxospiro[isobenzofuran-1(3H),4′-piperidine]-1′-carboxamide], 193 °C. With `O=C1Cc2ccccc2C2(CCN(C(=O)Nc3cnc(-c4ccccn4)cn3)CC2)N1` [Example 19, 3,4-Dihydro-3-oxo-N-[5-(2-pyridyl)-2-pyrazinyl]spiro[isoquinoline-1(2H),4′-piperidine]-1′-carboxamide], the melting point lay in the range of 223 to 225 °C. Regarding `O=C1OC2(CCN(C(=O)Nc3cc(-c4cnc5ccccc5c4)[nH]n3)CC2)c2ccccc21` [Example 31, 3-oxo-N-[5-(3-quinolyl)-3-pyrazolyl]spiro[isobenzofuran-1(3H),4′-piperidine]-1′-carboxamide], the melting point was in the range of 253 to 257 °C. On the same count and under the same terms, then `O=C1Cc2ccccc2C2(CCN(C(=O)Nc3cn(-c4cccc5ccoc45)cn3)CC2)N1` [Example 13, N-[1-(7-benzo[b]furanyl)-4-imidazolyl]-3,4-dihydro-3-oxospiro[isoquinoline-1(2H),4′-piperidine]-1′-carboxamide], with 192 to 194 °C; and `O=C1Cc2ccccc2C2(CCN(C(=O)Nc3ncc(-c4ccccc4)s3)CC2)N1` [Example 18, 3,4-Dihydro-3-oxo-N-(5-phenyl-2-thiazolyl)spiro[isoquinoline-1(2H),4′-piperidine]-1′-carboxamide], with more than 300 °C; and `CC(=O)c1ccc(NC(=O)N2CCC3(CC2)NC(=O)Cc2ccccc23)cc1` [Example 8, N-(4-acetylphenyl)-3,4-dihydro-3-oxospiro[isoquinoline-1(2H),4′-piperidine]-1′-carboxamide], with more than 300 °C. Compound `Cc1ccc2ccc(NC(=O)N3CCC4(CC3)NC(=O)c3ccccc34)nc2c1` [Example 3, N-(7-methyl-2-quinolyl)-3-oxospiro[isoindoline-1,4′-piperidine]-1′-carboxamide] gave a melting point of 194 to 196 °C. As for `O=C1Cc2ccccc2C2(CCN(C(=O)Nc3cc(-c4ccccc4)no3)CC2)N1` [Example 12, 3,4-Dihydro-3-oxo-N-(3-phenyl-5-isoxazolyl)spiro[isoquinoline-1(2H),4′-piperidine]-1′-carboxamide], the melting point lay in the range of 239 to 241 °C.

Regarding `COc1cccc(-n2cnc(NC(=O)N3CCC4(CC3)OC(=O)c3ccccc34)c2)c1` [Example 39, N-[1-(3-methoxyphenyl)-4-imidazolyl]-3-oxospiro[isobenzofuran-1(3H),4′-piperidine]-1′-carboxamide], the melting point is 208 to 210 °C. Consider `Cc1ccc2ccc(NC(=O)N3CCC4(CC3)OC(=O)c3ccccc34)nc2c1` [Example 24, N-(7-methyl-2-quinolyl)-3-oxospiro[isobenzofuran-1(3H),4′-piperidine]-1′-carboxamide], for which the melting point lay within 178 to 180 °C. On the same count and under the same terms, under `CC(C)=Cc1cnc(NC(=O)N2CCC3(CC2)NC(=O)Cc2ccccc23)cn1` [Example 11, 3,4-Dihydro-N-[5-(2-methyl-1-propenyl)-2-pyrazinyl]-3-oxospiro[isoquinoline-1(2H),4′-piperidine]-1′-carboxamide] stands 232.9 to 236.5 °C; under `O=C1Cc2ccccc2C2(CCN(C(=O)Nc3ccc4c(c3)CCCC4=O)CC2)N1` [Example 10, 3,4-Dihydro-3-oxo-N-(5-oxo-5,6,7,8-tetrahydro-2-naphthyl)spiro[isoquinoline-1(2H),4′-piperidine]-1′-carboxamide], 220.5 to 222.2 °C; under `O=C1OC2(CCN(C(=O)Nc3cn(-c4cnc5ccccc5c4)cn3)CC2)c2ccccc21` [Example 28, 3-Oxo-N-[1-(3-quinolyl)-4-imidazolyl]spiro[isobenzofuran-1(3H),4′-piperidine]-1′-carboxamide], 251 to 254 °C. Still for that read-out and setting: then `O=C1OC2(CCN(C(=O)Nc3cc(-c4ccc(Cl)cc4)[nH]n3)CC2)c2ccccc21` [Example 30, N-[5-(4-chlorophenyl)-3-pyrazolyl]-3-oxospiro[isobenzofuran-1(3H),4′-piperidine]-1′-carboxamide], with 255 to 258 °C. On the same count and under the same terms, then `Cc1cccc2sc(NC(=O)N3CCC4(CC3)NC(=O)Cc3ccccc34)nc12` [Example 20, 3,4-Dihydro-N-(4-methyl-2-benzothiazolyl)-3-oxospiro[isoquinoline-1(2H),4′-piperidine]-1′-carboxamide], with 144 to 146 °C; and `Cc1ccc2ccc(NC(=O)N3CCC4(CC3)NC(=O)Cc3ccccc34)nc2c1` [Example 7, 3,4-Dihydro-N-(7-methyl-2-quinolyl)-3-oxospiro[isoquinoline-1(2H),4′-piperidine]-1′-carboxamide], with 216 to 218 °C; and `O=C1NC2(CCN(C(=O)Nc3cnc(-c4ccccc4)cn3)CC2)c2ccccc21` [Example 2, 3-oxo-N-(5-phenyl-2-pyrazinyl)spiro[isoindoline-1,4′-piperidine]-1′-carboxamide], with 286 to 287 °C.
